# Data: the NIST ThermoML archive (doi:10.1016/j.tca.2010.07.032)
# “And” between values parts separate entries of the source, which are not always exact repeats. Equal entries are not always repeated. Numbers after ± are expanded uncertainties.
# Details: Liquid; Temperature-Programmed Gas Chromatography
row,SMILES,Normal boiling temperature
1,CCOP(=O)(OCC)OCC [ethyl phosphate],215.89 ± 22 °C and 216.34 ± 22 °C
2,CCCC(C)OP(=O)(OC(C)CCC)OC(C)CCC (stereo not drawn) [tri-sec-amyl phosphate],282.02 ± 28 °C and 282.74 ± 28 °C
3,CCC(C)OP(=O)(OC(C)CC)OC(C)CC (stereo not drawn) [tri-sec-butyl phosphate],260.80 ± 26 °C and 261.06 ± 26 °C
4,CCCCCCOP(=O)(OCCCCCC)OCCCCCC [trihexyl phosphate],366.12 ± 37 °C and 365.02 ± 36 °C
5,CC(C)COP(=O)(OCC(C)C)OCC(C)C [triisobutyl phosphate],264.67 ± 26 °C and 265.70 ± 27 °C
6,CC(C)CCOP(=O)(OCCC(C)C)OCCC(C)C [triisopentyl phosphate],302.29 ± 30 °C and 302.37 ± 30 °C
7,COP(=O)(OC)OC [trimethyl orthophosphate],195.06 ± 20 °C and 194.97 ± 20 °C
8,CCCCCOP(=O)(OCCCCC)OCCCCC [tripentyl phosphate],323.21 ± 32 °C and 326.62 ± 33 °C
